From patent publication US7786142B2, “Heterocyclic compounds as pSTAT3/IL-6 inhibitors” (Orchid Research Laboratories, Ltd., priority 2005, dated 2010) come the findings set out here.

What all share (type): cell-based
For one assay, the system named is MDAMB-231/U 251. The experiment in a line: Anti-cancer screen (MTT), MDAMB-231/U 251 cells. Particulars: MDAMB-231/U 251, 48 hours, concentrations tested 0.01-100 μM; for CC50: read-out: LC50 (the source's name). The protocol: (§1) Experimental drugs are screened for anti-cancer activity in three cell lines for their GI50, TGI and LC50 values (using five concentrations for each compound). The cell lines are maintained in DMEM containing 10% fetal bovine serum. 96 well micro titer plates are inoculated with cells in 100 μL for 24 hours at 37° C., 5% CO2, 95% air and 100% relative humidity. 5000 HCT116 cells/well, 5000 NCIH460 cells/well and 5000 U251 cells/well are plated. A separate plate with these cell lines is also inoculated to determine cell viability before the addition of the compounds (T0), (See Table I).
(§2) Following 24-hours incubation, experimental drugs are added to the 96 well plates. Each plate contains one of the above cell lines and the following in triplicate: five different concentrations (0.01, 0.1, 1, 10 and 100 μM) of four different compounds, appropriate dilutions of a cytotoxic standard and control (untreated) wells. Compounds are dissolved in DMSO to make 20 mM stock solutions on the day of drug addition and frozen at −20° C. Serial dilutions of these 20 mM stock solutions are made in complete growth medium such that 100 μL of these drug solutions in medium, of final concentrations equaling 0.01, 0.1, 1, 10 and 100 μM can be added to the cells in triplicate. Standard drugs whose anti-cancer activity has been well documented and which are regularly used are Doxorubicin and SAHA, (See Table I).
(§3) For T0 measurement, 24 hours after seeding the cells, 10 μL of 3-(4,5-Dimethyl-2-thiazolyl)-2,5-diphenyl-2H-tetrazolium (MTT) solution per well is added and incubation carried out for 3 hours at 37° C., 5% CO2, 95% air and 100% relative humidity, protected from light. Cells incubated with compounds for 48 hours are treated similarly except with the addition of 20 μL MTT solution per well and a subsequent incubation under the same conditions. After 3 hours of MTT incubation, well contents are aspirated carefully followed by addition of 150 μL DMSO per well. Plates are agitated to ensure solution of the formazan crystals in DMSO and absorbance read at 570 nm, (See Table I).
(§4) Percent growth is calculated for each compound's concentration relative to the control and zero measurement wells (T0; viability right before compound addition). If a test well's O.D. value is greater than the T0 measurement for that cell line % Growth=(test−zero)/(control−zero)×100

Assay [1] has as its system NCIH460, HCT116, MDAMB-231/U 251. Briefly: Anti-cancer screen, mean GI50 over the cell lines. The protocol:
as §1, §2, §3, §4

A further assay concerns NCIH460 cells. The experiment in a line: Anti-cancer screen (MTT), NCIH460 cells. The settings on record: Homo sapiens, NCI-H460, NCIH460, 48 hours, concentrations tested 0.01-100 μM; for CC50: read-out: LC50 (the source's name). The method, then:
as §1, §2, §3, §4

In another assay the test system is HCT116 cells. Briefly: Anti-cancer screen (MTT), HCT116 cells. Particulars: Homo sapiens, HCT-116, HCT116, 48 hours, concentrations tested 0.01-100 μM. The method, then:
as §1, §2, §3, §4

The structures appear in SMILES notation.

What is called GI50 is the concentration giving 50% growth inhibition. A lower GI50 goes with more potent growth inhibition. With `OC(COc1cccc2[nH]c3ccccc3c12)CN1CCNCC1` (stereo not shown) [Example 3, 1-(9H-carbazol-4-yloxy)-3-piperazin-1-ylpropan-2-ol], in the assay with MDAMB-231/U 251, the 50% growth inhibitory concentration (GI50) worked out at 55 µM, the IC (TGI) was 77 µM and the CC50 was greater than 100 µM. For the same compound, the GI50 in assay [1] came to 29.7 µM. In the assay with NCIH460 cells, the GI50 was 27 µM, the IC (TGI) was found to be 54 µM and the CC50 amounted to 80 µM. In the assay on HCT116 cells, this compound yielded a GI50 of 7 µM, an IC (TGI) of 36 µM and an LC50 (concentration for 50% net cell kill relative to T0) of 72 µM.
For the compound `COc1cc(CN2CCN(CC(O)COc3cccc4[nH]c5ccccc5c34)CC2)cc(OC)c1` (stereo not shown) [Example 30, 1-(9H-carbazol-4-yloxy)-3-[4-(3,5-dimethoxybenzyl)piperazin-1-yl]propan-2-ol], the GI50 with MDAMB-231/U 251 was 2.5 µM; in assay [1], 19.2 µM; with NCIH460 cells it was 30 µM; in the assay with HCT116 cells, 25 µM. In addition, the figures for the IC (TGI) in the assay with MDAMB-231/U 251, in the assay with NCIH460 cells and with HCT116 cells were 9 µM, 60 µM and 72 µM, respectively. Besides, the values for the CC50 in the assay with MDAMB-231/U 251 and in the assay on NCIH460 cells were 70 µM and 90 µM, respectively. The compound further came in with an LC50 (concentration for 50% net cell kill relative to T0) with HCT116 cells of 84 µM.
`OC(COc1cccc2[nH]c3ccccc3c12)CN1CCCC1` (stereo not shown) [Example 6, 1-(9H-carbazol-4-yloxy)-3-pyrrolidin-1-ylpropan-2-ol]: in the assay with MDAMB-231/U 251, the GI50 is greater than 100 µM, the IC (TGI) is greater than 100 µM and the CC50 is greater than 100 µM. In assay [1], this compound showed a GI50 of 10.5 µM. For the same compound, in the assay with NCIH460 cells, the concentration for 50% growth inhibition (GI50) was 10 µM, the IC (TGI) is 42 µM and the CC50 came to 75 µM. In the assay on HCT116 cells, the GI50 was greater than 100 µM, the IC (TGI) is greater than 100 µM and the LC50 (concentration for 50% net cell kill relative to T0) is greater than 100 µM.
For `O=[N+]([O-])c1ccc(CN2CCN(CC(O)COc3cccc4[nH]c5ccccc5c34)CC2)s1` (stereo not shown) [Example 27, 1-(9H-carbazol-4-yloxy)-3-{4-[(5-nitro-2-thienyl)methyl]piperazin-1-yl}propan-2-ol], in the assay on MDAMB-231/U 251, the GI50 stood at 2.8 µM, the IC (TGI) stood at 48 µM and the CC50 is greater than 100 µM. Moreover, growth in assay [1] was halved (GI50) at 25.9 µM. In the assay on NCIH460 cells, the GI50 worked out at 45 µM, the IC (TGI) was 98 µM and the CC50 is greater than 100 µM. In the assay on HCT116 cells, this compound showed a GI50 of 30 µM, an IC (TGI) of 60 µM and an LC50 (concentration for 50% net cell kill relative to T0) of 90 µM.
For `O=C(Cc1ccc(F)cc1)N1CCC(NCC(O)COc2cccc3[nH]c4ccccc4c23)CC1` (stereo not shown) [Example 66], in the assay with MDAMB-231/U 251, the concentration for 50% growth inhibition (GI50) stood at 15 µM, the IC (TGI) was 48 µM and the CC50 was found to be 77 µM. In assay [1], this compound showed a GI50 of 18.3 µM. In the assay on NCIH460 cells, the 50% growth inhibitory concentration (GI50) was 14 µM, the IC (TGI) was 54 µM and the CC50 is 79 µM. Moreover, in the assay on HCT116 cells, halving of growth (GI50) required 26 µM, the IC (TGI) is 49 µM and the LC50 (concentration for 50% net cell kill relative to T0) is 84 µM.
For the compound `Cc1cccc2sc(NC(=O)CN3CCN(CC(O)COc4cccc5[nH]c6ccccc6c45)CC3)nc12` (stereo not shown) [Example 59, 2-{4-[3-(9H-carbazol-4-yloxy)-2-hydroxypropyl]-piperazin-1-yl}-N-(4-methyl-1,3-benzothiazol-2-yl)acetamide], the 50% growth inhibitory concentration (GI50) in the assay with MDAMB-231/U 251 is 47 µM; in assay [1], 28.2 µM; in the assay with NCIH460 cells, 9.5 µM; in the assay on HCT116 cells it was greater than 100 µM. Besides, the IC (TGI) in the assay with MDAMB-231/U 251, in the assay with NCIH460 cells and in the assay on HCT116 cells was greater than 100 µM in each case. For the same compound, the CC50 in the assay with MDAMB-231/U 251 and in the assay on NCIH460 cells was greater than 100 µM in each case. Moreover, the LC50 (concentration for 50% net cell kill relative to T0) in the assay on HCT116 cells is greater than 100 µM.
With `Cc1cc(C)nc(NCC(O)COc2cccc3[nH]c4ccccc4c23)n1` (stereo not shown) [Example 15, 1-(9H-carbazol-4-yloxy)-3-[(4,6-dimethylpyrimidin-2-yl)amino]propan-2-ol], in the assay on MDAMB-231/U 251, halving of growth (GI50) required 8 µM, the IC (TGI) was greater than 100 µM and the CC50 is greater than 100 µM. The compound further showed a GI50 in assay [1] of 8 µM. Further, in the assay with NCIH460 cells, the 50% growth inhibitory concentration (GI50) was greater than 100 µM, the IC (TGI) is greater than 100 µM and the CC50 was greater than 100 µM. In the assay on HCT116 cells, this compound yielded a GI50 greater than 100 µM, an IC (TGI) greater than 100 µM and an LC50 (concentration for 50% net cell kill relative to T0) greater than 100 µM.
Take `Cc1csc(NC(=O)CN2CCN(CC(O)COc3cccc4[nH]c5ccccc5c34)CC2)n1` (stereo not shown) [Example 60, 2-{4-[3-(9H-carbazol-4-yloxy)-2-hydroxypropyl]-piperazin-1-yl}-N-(4-methyl-1,3-thiazol-2-yl)acetamide]: in the assay on MDAMB-231/U 251, the GI50 is greater than 100 µM, the IC (TGI) was greater than 100 µM and the CC50 was greater than 100 µM. In addition, in assay [1], the concentration for 50% growth inhibition (GI50) came to 25 µM. Further, in the assay with NCIH460 cells, the GI50 worked out at 24 µM, the IC (TGI) amounted to 61 µM and the CC50 is 85 µM. In the assay on HCT116 cells, it took 26 µM to inhibit growth by half (GI50), the IC (TGI) is 62 µM and the LC50 (concentration for 50% net cell kill relative to T0) came to 100 µM.
For the compound `OC(COc1cccc2[nH]c3ccccc3c12)CN1CCc2sccc2C1` (stereo not shown) [Example 4, 1-(9H-carbazol-4-yloxy)-3-(6,7-dihydrothieno[3,2-c]pyridin-5(4H)-yl)propan-2-ol], the GI50 in the assay on MDAMB-231/U 251 was found to be 34 µM; in assay [1], 28 µM; in the assay on NCIH460 cells it was 18 µM; with HCT116 cells, 32 µM. For the same compound, the IC (TGI) was 59 µM in the assay with MDAMB-231/U 251, 47 µM in the assay with NCIH460 cells and 57 µM in the assay with HCT116 cells. Besides, the CC50 in the assay with MDAMB-231/U 251 is 84 µM; with NCIH460 cells it was 80 µM. The compound also yielded an LC50 (concentration for 50% net cell kill relative to T0) in the assay on HCT116 cells of 82 µM.
For `O=[N+]([O-])c1ccc(CN2CCN(CC(O)COc3cccc4[nH]c5ccccc5c34)CC2)o1` (stereo not shown) [Example 26, 1-(9H-carbazol-4-yloxy)-3-{4-[(5-nitro-2-furyl)methyl]piperazin-1-yl}propan-2-ol], the 50% growth inhibitory concentration (GI50) in the assay with MDAMB-231/U 251 stood at 30 µM; in assay [1] it was 20.7 µM; with NCIH460 cells it was 2 µM; in the assay on HCT116 cells it was 30 µM. Also, the IC (TGI) in the assay on MDAMB-231/U 251 came to 85 µM; in the assay on NCIH460 cells, 22 µM; in the assay on HCT116 cells it was 48 µM. In addition, the CC50 was greater than 100 µM in the assay with MDAMB-231/U 251 and 70 µM with NCIH460 cells. Moreover, the LC50 (concentration for 50% net cell kill relative to T0) with HCT116 cells worked out at 68 µM.
On to `COc1cc(NCC(O)COc2cccc3[nH]c4ccccc4c23)cc(OC)c1OC` (stereo not shown) [Example 8], for which the GI50 in the assay on MDAMB-231/U 251 worked out at 5 µM; in assay [1], 8.6 µM; in the assay on NCIH460 cells, 15 µM; in the assay with HCT116 cells, 5.8 µM. The IC (TGI) stood at 50 µM in the assay with MDAMB-231/U 251, 45 µM in the assay on NCIH460 cells and 22 µM in the assay with HCT116 cells. The CC50 with MDAMB-231/U 251 is greater than 100 µM; in the assay with NCIH460 cells, 75 µM. The compound also came in with an LC50 (concentration for 50% net cell kill relative to T0) in the assay on HCT116 cells of 90 µM.
As for `OC(CNc1nc2ccccc2[nH]1)COc1cccc2[nH]c3ccccc3c12` (stereo not shown) [Example 19, 1-(1H-Benzimidazol-2-ylamino)-3-(9H-carbazol-4-yloxy)propan-2-ol], in the assay with MDAMB-231/U 251, growth was halved (GI50) at 51.5 µM, the IC (TGI) was determined as 67 µM and the CC50 was determined as 85 µM. This compound showed a GI50 in assay [1] of 28.7 µM. Moreover, in the assay on NCIH460 cells, halving of growth (GI50) required 7.5 µM, the IC (TGI) was 35 µM and the CC50 turned out to be 70.5 µM. In the assay on HCT116 cells, the GI50 was 27 µM, the IC (TGI) came to 52 µM and the LC50 (concentration for 50% net cell kill relative to T0) is 79 µM.
On to `N#Cc1ccc(C(=O)N2CCC(NCC(O)COc3cccc4[nH]c5ccccc5c34)CC2)cn1` (stereo not shown) [Example 70, 1-(9H-carbazol-4-yloxy)-3-{[1-(6-cyanonicotine-3-carbonyl)piperidin-4-yl]amino}propan-2-ol], for which, in the assay with MDAMB-231/U 251, halving of growth (GI50) required 3.5 µM, the IC (TGI) was determined as 8.9 µM and the CC50 was 57 µM. In addition, the GI50 in assay [1] is 10.5 µM. In the assay with NCIH460 cells, the GI50 stood at 23 µM, the IC (TGI) is 50 µM and the CC50 came out at 78 µM. In the assay on HCT116 cells, this compound yielded a GI50 of 5 µM, an IC (TGI) of 23 µM and an LC50 (concentration for 50% net cell kill relative to T0) of 67 µM.
